target: T1, recombinant murine Aurora A enzyme (Mus musculus, UniProt P97477); experiment: Aurora A DELFIA Kinase Assay; type: biochemical; conditions: mouse Aurora A, 250 μM ATP; threshold less than or equal to 100 nM; read-out: IC50
T1 construct: hexahistidine (His6) (N); made in house; host or cells: insect cells, baculovirus (Bac-to-Bac, Invitrogen)
T1 sequence (P97477 whole entry): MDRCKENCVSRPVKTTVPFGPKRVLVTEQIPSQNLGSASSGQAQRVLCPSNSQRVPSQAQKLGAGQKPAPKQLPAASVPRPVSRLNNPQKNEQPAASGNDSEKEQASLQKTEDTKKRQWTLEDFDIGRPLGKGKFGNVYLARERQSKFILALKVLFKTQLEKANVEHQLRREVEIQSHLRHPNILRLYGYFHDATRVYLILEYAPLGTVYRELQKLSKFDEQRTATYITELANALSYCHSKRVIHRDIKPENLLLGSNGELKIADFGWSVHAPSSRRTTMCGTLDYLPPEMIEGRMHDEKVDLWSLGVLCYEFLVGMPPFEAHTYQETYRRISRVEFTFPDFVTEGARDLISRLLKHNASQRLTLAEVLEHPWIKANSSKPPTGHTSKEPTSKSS

IC50, ≤ 100 nM:
O=C(NCCN1CCOCC1)c1ccc(Nc2ncc3c(n2)-c2ccc(Cl)cc2C(c2ccccc2Cl)=NC3)cc1 [Compound I-30, 4-[9-Chloro-7-(2-chloro-phenyl)-5H-benzo[c]pyrimido[4,5-e]azepin-2-ylamino]-N-(2-morpholin-4-yl-ethyl)-benzamide]
Cc1ccc2c(c1)C(c1ccccc1F)=NCc1cnc(Nc3ccc(C(=O)O)cc3)nc1-2 [Compound I-58, 4-[7-(2-Fluoro-phenyl)-9-methyl-5H-benzo[c]pyrimido[4,5-e]azepin-2-ylamino]-benzoic acid]
CNCCCNC(=O)c1ccc(Nc2ncc3c(n2)-c2ccc(Cl)cc2C(c2ccccc2F)=NC3)cc1 [Compound I-130, 4-[9-Chloro-7-(2-fluoro-phenyl)-5H-benzo[c]pyrimido[4,5-e]azepin-2-ylamino]-N-(3-methylamino-propyl)-benzamide]
O=C(O)c1ccc(Nc2ncc3c(n2)-c2ccc(Cl)cc2C(c2ccccc2F)=NC3)cc1 [Compound I-52, 4-[9-Chloro-7-(2-fluoro-phenyl)-5H-benzo[c]pyrimido[4,5-e]azepin-2-ylamino]-benzoic acid]
CN(C)C1CN(C(=O)c2cccc(Nc3ncc4c(n3)-c3ccc(Cl)cc3C(c3c(F)cccc3F)=NC4)c2)C1 [Compound I-204, 9-chloro-7-(2,6-difluorophenyl)-N-(3-{[3-(dimethylamino)azetidin-1-yl]carbonyl}phenyl)-5H-pyrimido[5,4-d][2]benzazepin-2-amine]
O=C(c1ccc(Nc2ncc3c(n2)-c2ccc(Cl)cc2C(c2ccccc2F)=NC3)cc1)N1CCNCC1 [Compound I-8, {4-[9-Chloro-7-(2-fluoro-phenyl)-5H-benzo[c]pyrimido[4,5-e]azepin-2-ylamino]-phenyl}-piperazin-1-yl-methanone]
COc1cccc(F)c1C1=NCc2cnc(Nc3cccc(C(=O)N4CCC(N(C)C)C4)c3)nc2-c2ccc(Cl)cc21 (stereo not shown) [Compound I-231, 9-chloro-N-(3-{[3-(dimethylamino)pyrrolidin-1-yl]carbonyl}phenyl)-7-(2-fluoro-6-methoxyphenyl)-5H-pyrimido[5,4-d][2]benzazepin-2-amine]
NC1CCN(C(=O)c2ccc(Nc3ncc4c(n3)-c3ccc(Cl)cc3C(c3ccccc3C(F)(F)F)=NC4)cc2)C1 (stereo not shown) [Compound I-289, N-{4-[(3-aminopyrrolidin-1-yl)carbonyl]phenyl}-9-chloro-7-[2-(trifluoromethyl)phenyl]-5H-pyrimido[5,4-d][2]benzazepin-2-amine]
COc1ccccc1C1=NCc2cnc(Nc3ccc(C(=O)N4CC(C)NC(C)C4)cc3)nc2-c2ccc(Cl)cc21 (stereo not shown) [Compound I-330]
CNC1CCCN(C(=O)c2ccc(Nc3ncc4c(n3)-c3ccc(Cl)cc3C(c3ccccc3OC)=NC4)cc2)C1 (stereo not shown) [Compound I-333, 9-chloro-7-(2-methoxyphenyl)-N-(4-{[3-(methylamino)piperidin-1-yl]carbonyl}phenyl)-5H-pyrimido[5,4-d][2]benzazepin-2-amine]
CN1CCN(C(=O)c2ccc(Nc3ncc4c(n3)-c3ccc(Cl)cc3C(c3c(F)cccc3F)=NC4)cc2)CC1 [Compound I-184, {4-[9-Chloro-7-(2,6-difluoro-phenyl)-5H-benzo[c]pyrimido[4,5-e]azepin-2-ylamino]-phenyl}-(4-methyl-piperazin-1-yl)-methanone]
O=C(O)c1ccc(Nc2ncc3c(n2)-c2ccc(Cl)cc2C(c2ccccc2C(F)(F)F)=NC3)cc1 [Compound I-277, 4-({9-chloro-7-[2-(trifluoromethyl)phenyl]-5H-pyrimido[5,4-d][2]benzazepin-2-yl}amino)benzoic acid]
COc1ccccc1C1=NCc2cnc(Nc3ccc(C(=O)O)cc3)nc2-c2ccc(Cl)cc21 [Compound I-55, 4-[9-Chloro-7-(2-methoxy-phenyl)-5H-benzo[c]pyrimido[4,5-e]azepin-2-ylamino]-benzoic acid]
O=C(NCCc1c[nH]cn1)c1ccc(Nc2ncc3c(n2)-c2ccc(Cl)cc2C(c2ccccc2F)=NC3)cc1 [Compound I-147, 4-[9-Chloro-7-(2-fluoro-phenyl)-5H-benzo[c]pyrimido[4,5-e]azepin-2-ylamino]-N-[2-(1H-imidazol-4-yl)-ethyl]-benzamide]
NC1CCN(C(=O)c2ccc(Nc3ncc4c(n3)-c3ccc(Cl)cc3C(c3ncccc3F)=NC4)cc2)CC1 [Compound I-304, N-{4[(4-aminopiperidin-1-yl)carbonyl]phenyl}-9-chloro-7-(3-fluoropyridin-2-yl)-5H-pyrimido[5,4-d][2]benzazepin-2-amine]
NC1CCN(C(=O)c2ccc(Nc3ncc4c(n3)-c3ccc(Cl)cc3C(c3c(F)cccc3F)=NC4)cc2Cl)C1 (stereo not shown) [Compound I-318]
COc1ccccc1C1=NCc2cnc(Nc3ccc(C(=O)N4CCN(C)CC4)cc3)nc2-c2ccc(Cl)cc21 [Compound I-12, {4-[9-Chloro-7-(2-methoxy-phenyl)-5H-benzo[c]pyrimido[4,5-e]azepin-2-ylamino]-phenyl}-(4-methyl-piperazin-1-yl)-methanone]
CN(C)CCCNC(=O)c1ccc(Nc2ncc3c(n2)-c2ccc(Cl)cc2C(c2ccccc2F)=NC3)cc1 [Compound I-6, 4-[9-Chloro-7-(2-fluoro-phenyl)-5H-benzo[c]pyrimido[4,5-e]azepin-2-ylamino]-N-(3-dimethylamino-propyl)-benzamide]
CN(CCc1ccccn1)C(=O)c1ccc(Nc2ncc3c(n2)-c2ccc(Cl)cc2C(c2ccccc2F)=NC3)cc1 [Compound I-160, 4-[9-Chloro-7-(2-fluoro-phenyl)-5H-benzo[c]pyrimido[4,5-e]azepin-2-ylamino]-N-methyl-N-(2-pyridin-2-yl-ethyl)-benzamide]
O=C(c1ccc(Nc2ncc3c(n2)-c2ccc(Cl)cc2C(c2ccccc2F)=NC3)cc1)N1CCN(CCCN2CCCC2)CC1 [Compound I-188, {4-[9-Chloro-7-(2-fluoro-phenyl)-5H-benzo[c]pyrimido[4,5-e]azepin-2-ylamino]-phenyl}-[4-(3-pyrrolidin-1-yl-propyl)-piperazin-1-yl]-methanone]
CN(C)C1CN(C(=N)NC(=O)c2ccc(Nc3ncc4c(n3)-c3ccc(Cl)cc3C(c3c(F)cccc3F)=NC4)cc2)C1 [Compound I-259, 4-{[9-chloro-7-(2,6-difluorophenyl)-5H-pyrimido[5,4-d][2]benzazepin-2-yl]amino}-N-[[3-(dimethylamino)azetidin-1-yl](imino)methyl]benzamide]
NC1(C(=O)O)CCN(C(=O)c2ccc(Nc3ncc4c(n3)-c3ccc(Cl)cc3C(c3c(F)cccc3F)=NC4)cc2)CC1 [Compound I-295, 4-amino-1-(4-{[9-chloro-7-(2,6-difluorophenyl)-5H-pyrimido[5,4-d][2]benzazepin-2-yl]amino}benzoyl)piperidine-4-carboxylic acid]
CN(C)CC(=O)Nc1ccc(Nc2ncc3c(n2)-c2ccc(Cl)cc2C(c2c(F)cccc2F)=NC3)cc1 [Compound I-307, N-(4-{[9-chloro-7-(2,6-difluorophenyl)-5H-pyrimido[5,4-d][2]benzazepin-2-yl]amino}phenyl)-2-(dimethylamino)acetamide]
Cc1ccccc1C1=NCc2cnc(Nc3ccc(C(=O)NCCCN4CCN(C)CC4)cc3)nc2-c2ccc(Cl)cc21 [Compound I-21, 4-(9-Chloro-7-o-tolyl-5H-benzo[c]pyrimido[4,5-e]azepin-2-ylamino)-N-[3-(4-methyl-piperazin-1-yl)-propyl]-benzamide]
O=C(c1ccc(Nc2ncc3c(n2)-c2ccc(Cl)cc2C(c2ccccc2F)=NC3)cc1)N1CCN(CCCN2CCCCC2)CC1 [Compound I-181, {4-[9-Chloro-7-(2-fluoro-phenyl)-5H-benzo[c]pyrimido[4,5-e]azepin-2-ylamino]-phenyl}-[4-(3-piperidin-1-yl-propyl)-piperazin-1-yl]-methanone]
CNC1CCN(C(=O)c2cc(Nc3ncc4c(n3)-c3ccc(Cl)cc3C(c3c(F)cccc3F)=NC4)ccc2Cl)CC1 [Compound I-282, 9-chloro-N-(4-chloro-3-{[4-(methylamino)piperidin-1-yl]carbonyl}phenyl)-7-(2,6-difluorophenyl)-5H-pyrimido[5,4-d][2]benzazepin-2-amine]
CN(C)CCCN1CCN(C(=O)c2ccc(Nc3ncc4c(n3)-c3ccc(Cl)cc3C(c3ccccc3F)=NC4)cc2)CC1 [Compound I-210, 9-chloro-N-[4-({4-[3-(dimethylamino)propyl]piperazin-1-yl}carbonyl)phenyl]-7-(2-fluorophenyl)-5H-pyrimido[5,4-d][2]benzazepin-2-amine]
CN(C)CCNC(=O)c1ccc(Nc2ncc3c(n2)-c2ccc(Cl)cc2C(c2ccccc2F)=NC3)cc1 [Compound I-4, 4-[9-Chloro-7-(2-fluoro-phenyl)-5H-benzo[c]pyrimido[4,5-e]azepin-2-ylamino]-N-(2-dimethylamino-ethyl)-benzamide]
O=C(c1ccc(Nc2ncc3c(n2)-c2ccc(Cl)cc2C(c2ccccc2F)=NC3)cc1)N1CCN(CCN2CCCCC2)CC1 [Compound I-182, {4-[9-Chloro-7-(2-fluoro-phenyl)-5H-benzo[c]pyrimido[4,5-e]azepin-2-ylamino]-phenyl}-[4-(2-piperidin-1-yl-ethyl)-piperazin-1-yl]-methanone]
CNC(=O)C1CN(C(=O)c2ccc(Nc3ncc4c(n3)-c3ccc(Cl)cc3C(c3c(F)cccc3F)=NC4)cc2)CCN1 (stereo not shown) [Compound I-310, 4-(4-{[9-chloro-7-(2,6-difluorophenyl)-5H-pyrimido[5,4-d][2]benzazepin-2-yl]amino}benzoyl)-N-methylpiperazine-2-carboxamide]
CC1CN(C(=O)c2ccc(Nc3ncc4c(n3)-c3ccc(Cl)cc3C(c3c(F)cccc3F)=NC4)cc2Cl)CCN1 (stereo not shown) [Compound I-216, 9-chloro-N-{3-chloro-4-[(3-methylpiperazin-1-yl)carbonyl]phenyl}-7-(2,6-difluorophenyl)-5H-pyrimido[5,4-d][2]benzazepin-2-amine]

Reference: patent publication US9102678B2, “Compounds and methods for inhibiting mitotic progression” (Millennium Pharmaceuticals, Inc., priority 2004, dated 2015)
